Patent publication US11713309B2, “Solid forms of Cerdulatinib” (Alexion Pharmaceuticals, Inc., priority 2018, dated 2023)
Where a name gives a salt, the structure may show the parent alone.

Columns and labels:
[1] = Approximate kinetic solubility in pharmaceutical co-solvents; type: physicochemical; conditions: aqueous with cosolvent or surfactant or cyclodextrin, thermodynamic from solid, no-pH adjustment
Text: A summary of the approximate kinetic solubility of Compound I HCl Form I in organic solvents, simulated biological fluids, and common pharmaceutical co-solvents is provided in Tables 8-10, respectively.

[2] = Thermodynamic pH-solubility profile; type: physicochemical; conditions: 7 days of shaking, about 37° C. water bath
Text: A thermodynamic pH-solubility profile of Compound I HCl Form I in various buffer or non-buffer solutions is further provided in FIG. 61. FIG. 61 additionally includes the thermodynamic pH-solubility profile of Compound I free base. It is of note that no data is shown in the profile of Compound I free base below a pH of about 2.0, as Compound I free base converted to Compound I HCl Form I below a pH of about 2.0. Similarly, no data is shown in the profile of Compound I HCl Form I above a pH of about 3.0, as Compound I HCl Form I converted to Compound I free base above a pH of about 3.0.

[3] = 2% Captisol in aqueous solution
[4] = 5% Captisol in aqueous solution
[5] = 5% Pharmasolve in aqueous solution
[6] = 5% Poloxamer F68 in aqueous solution
[7] = 10% Captisol in aqueous solution
[8] = 10% HP-β-CD in aqueous solution
[9] = 10% Labrasol in aqueous solution
[10] = 10% Pharmasolve in aqueous solution
[11] = 10% Poloxamer F68 in aqueous solution
[12] = 20% HP-β-CD in aqueous solution
[13] = 20% Labrasol in aqueous solution
[14] = 30% HP-β-CD in aqueous solution
[15] = 35% Labrasol in aqueous solution
[16] = 40% Captisol in aqueous solution
[17] = 40% HP-β-CD in aqueous solution
[18] = 50% Labrasol in aqueous solution

With `CCS(=O)(=O)N1CCN(c2ccc(Nc3ncc(C(N)=O)c(NC4CC4)n3)cc2)CC1` [Compound I HCl Form I, 4-(cyclopropylamino)-2-(4-(4-(ethylsulfonyl)piperazin-1-yl)phenylamino)pyrimidine-5-carboxamide] the solubility kinetic at 2 h [1, 3] was 2040 µg/mL, the solubility kinetic at 24 h [1, 3] was 2510 µg/mL and the solubility kinetic at 7 days [1, 3] was 2540 µg/mL. The solubility kinetic at 2 h ([1]; 3% HP-β-CD in aqueous solution) was 990 µg/mL, the solubility kinetic at 24 h ([1]; 3% HP-β-CD in aqueous solution) was 1120 µg/mL and the solubility kinetic at 7 days ([1]; 3% HP-β-CD in aqueous solution) was 1020 µg/mL. For the same molecule, the solubility kinetic at 2 h ([1]; 3% TPGS in aqueous solution) was 1060 µg/mL, the solubility kinetic at 24 h ([1]; 3% TPGS in aqueous solution) was 640 µg/mL and the solubility kinetic at 7 days ([1]; 3% TPGS in aqueous solution) was 540 µg/mL. For the same molecule, the solubility kinetic at 2 h [1, 4] was 3010 µg/mL, the solubility kinetic at 24 h [1, 4] was 3610 µg/mL and the solubility kinetic at 7 days [1, 4] was 3750 µg/mL. For the same molecule, the solubility kinetic at 2 h ([1]; 5% HP-β-CD in aqueous solution) was 1450 µg/mL, the solubility kinetic at 24 h ([1]; 5% HP-β-CD in aqueous solution) was 1390 µg/mL and the solubility kinetic at 7 days ([1]; 5% HP-β-CD in aqueous solution) was 1590 µg/mL. For the same molecule, the solubility kinetic at 2 h [1, 5] was 430 µg/mL, the solubility kinetic at 24 h [1, 5] was 690 µg/mL and the solubility kinetic at 2 h [1, 6] was 230 µg/mL. It also gave a solubility kinetic at 24 h [1, 6] of 180 µg/mL, a solubility kinetic at 2 h ([1]; 5% TPGS in aqueous solution) of 1610 µg/mL and a solubility kinetic at 24 h ([1]; 5% TPGS in aqueous solution) of 1530 µg/mL. The solubility kinetic at 7 days ([1]; 5% TPGS in aqueous solution) was 1320 µg/mL, the solubility kinetic at 2 h [1, 7] was 3040 µg/mL and the solubility kinetic at 24 h [1, 7] was 3410 µg/mL. The solubility kinetic at 7 days [1, 7] was 3670 µg/mL, the solubility kinetic at 2 h [1, 8] was 1880 µg/mL and the solubility kinetic at 24 h [1, 8] was 2030 µg/mL. The solubility kinetic at 7 days [1, 8] was 1930 µg/mL, the solubility kinetic at 2 h [1, 9] was 1150 µg/mL and the solubility kinetic at 24 h [1, 9] was 820 µg/mL. It also gave a solubility kinetic at 7 days [1, 9] of 700 µg/mL, a solubility kinetic at 2 h [1, 10] of 700 µg/mL and a solubility kinetic at 24 h [1, 10] of 570 µg/mL. For the same molecule, the solubility kinetic at 2 h [1, 11] was 260 µg/mL, the solubility kinetic at 24 h [1, 11] was 210 µg/mL and the solubility kinetic at 2 h ([1]; 10% TPGS in aqueous solution) was 1800 µg/mL. It also gave a solubility kinetic at 24 h ([1]; 10% TPGS in aqueous solution) of 1930 µg/mL, a solubility kinetic at 7 days ([1]; 10% TPGS in aqueous solution) of 1720 µg/mL and a solubility kinetic at 2 h [1, 12] of 2630 µg/mL. It also gave a solubility kinetic at 24 h [1, 12] of 2810 µg/mL, a solubility kinetic at 7 days [1, 12] of 2650 µg/mL and a solubility kinetic at 2 h [1, 13] of 1840 µg/mL. The solubility kinetic at 24 h [1, 13] was 1850 µg/mL, the solubility kinetic at 7 days [1, 13] was 1710 µg/mL and the solubility kinetic at 2 h ([1]; 20% PEG in aqueous solution) was 270 µg/mL. For the same molecule, the solubility kinetic at 24 h ([1]; 20% PEG in aqueous solution) was 370 µg/mL, the solubility kinetic at 2 h ([1]; 20% TPGS in aqueous solution) was 2450 µg/mL and the solubility kinetic at 24 h ([1]; 20% TPGS in aqueous solution) was 2420 µg/mL. For the same molecule, the solubility kinetic at 7 days ([1]; 20% TPGS in aqueous solution) was 2620 µg/mL, the solubility kinetic at 2 h [1, 14] was 2980 µg/mL and the solubility kinetic at 24 h [1, 14] was 2940 µg/mL. It also gave a solubility kinetic at 2 h ([1]; 30% PEG in aqueous solution) of 420 µg/mL, a solubility kinetic at 24 h ([1]; 30% PEG in aqueous solution) of 450 µg/mL and a solubility kinetic at 7 days ([1]; 30% PEG in aqueous solution) of 410 µg/mL. For the same molecule, the solubility kinetic at 2 h [1, 15] was 1900 µg/mL, the solubility kinetic at 24 h [1, 15] was 2010 µg/mL and the solubility kinetic at 7 days [1, 15] was 1800 µg/mL. For the same molecule, the solubility kinetic at 2 h [1, 16] was 4250 µg/mL, the solubility kinetic at 24 h [1, 16] was 4400 µg/mL and the solubility kinetic at 7 days [1, 16] was 4330 µg/mL. The solubility kinetic at 2 h [1, 17] was 3860 µg/mL, the solubility kinetic at 24 h [1, 17] was 3840 µg/mL and the solubility kinetic at 7 days [1, 17] was 4120 µg/mL. The solubility kinetic at 2 h [1, 18] was 2050 µg/mL, the solubility kinetic at 24 h [1, 18] was 2650 µg/mL and the solubility kinetic at 7 days [1, 18] was 2200 µg/mL. The solubility kinetic at 2 h ([1]; 50% PEG in aqueous solution) was 2170 µg/mL, the solubility kinetic at 24 h ([1]; 50% PEG in aqueous solution) was 870 µg/mL and the solubility kinetic at 7 days ([1]; 50% PEG in aqueous solution) was 690 µg/mL. For the same molecule, the “pH range in which Compound I HCl Form I converted to Compound I free base” value [2] was greater than 3.0.
